Values after ≈ are worked out from the molar mass of the structure shown. Values joined by “and” are separate entries in the source; they are usually repeats but may differ in a detail not shown here. Equal values may be shown once. “Also recorded” adds a separate entry of the source. Where a name gives a salt, the structure may show the parent alone. Read-outs that look alike come from different tables or passages of the source.
Key:
[1] = Water / aqueous solubility at 25 °C; assay type: physicochemical
[2] = Solubility in ethanol or acetonitrile; assay type: physicochemical
Description: PIH has very limited solubility in water and ethanol, and in fact, to solubilize 28.6 grams of PIH would require 30,000 cc of absolute ethanol. Nevertheless, the aforesaid molar concentrations were used to produce a suspension to which was added the ethereal HCI solution.
As a result of applicant's work, this procedure raises even more questions of operability than the immediately preceding one, since the acetonitrile solubility of the precipitate obtained after treatment of an authentic sample of PIH with ethereal HCI, is virtually nil. Specifically, attempts to solubilize the product succeeded in dissolving only 40 ma of material per 500 cc of hot acetonitrile--a ratio of 1 gram per 12.5 liters of acetonitrile (a ratio of […]) and no precipitate was obtained after addition of dry ether--even upon cooling the solution. Applicants were unable to liberate any product from the recrystallization system disclosed in U.S. 2,810,725.
This cannot be accomplished since the solubility of PIH in ethanol is approximately 1 mg/mL and would require a volume of 30,000 cc for dissolution as described and not 500 cc.
There was utilized a suspension of 57.2 mg/cc (1.43 g, 5 mMol in 25 cc absolute ethanol) to which were added two equivalents (10 mmoles) of 4 N ethereal HCI (2.5 cc) and stirred for one hour. The light yellow starting material became a copious off-white suspension. This was filtered and dried to give 1.68 g of a solid with melting point 250°-252°C. (dec) with discoloration beginning at 240° C. An authentic sample of PIH dihydrochloride, synthesized according to Example 1 supra, melts at 255°-257° C.

[3] = Human studies of oral PIH: iron excretion, toxicity, palatability; assay type: in vivo; conditions: in the mouth
Excerpt: There has, heretofore been no convenient, safe and effective orally administered chelator that has been developed for clinical use.

[4] = noted by Sah 1953; cited from earlier work
[5] = below pH 3; chromatographic investigations; cited from earlier work
[6] = continuous infusion in solution; rats; cited from earlier work
[7] = cited from earlier work
[8] = cited from earlier work; remark: listed apart in the source
[9] = Stability/degradation in aqueous medium of given pH; assay type: physicochemical; conditions: for degraded at 3 h: aqueous medium, read-out: degradation after three hours
[10] = Stability of the solid to light and anhydrous heat; assay type: physicochemical
[11] = Iron complexation (chelation); conditions: aqueous solutions in vitro and in vivo
[12] = Biliary iron excretion in iron-overloaded rats after gavage, bile duct cannulated; assay type: in vivo, Male Sprague-Dawley rats; conditions: gavage 100 mg/kg, versus PIH equivalent dosage
Description: Measurement of the bioefficiency of iron chelators have been carried out in rats using the methods of Brittenham supra and Park et al,(C. Park, B. R. Bacon, G. M. Brittenham and N. Tas. Lab Invest. 57:555-63 (1987).
Male Sprague-Dawley rats weighing approximately 200 g were housed in cages and randomly assigned to three groups containing at least 6 animals. The groups received (i) one ml of saline alone administered by gavage (ii) 1 mL saline with PIH as the free base, 100 mg/kg body weight, added just prior to administration by gavage and (iii) 1 mL saline with PIHDH, 100 mg/kg body weight, added just prior to administration by gavage. The doses of chelators tested are chosen to provide direct comparisons with previous assay data. Animals receiving the chelators or saline by gavage receive doses 45 minutes prior to surgery. Animals are placed under anesthesia and the bile duct cannulated to permit continuous collection of bile during the assay time period. The bile is collected at half-hour intervals for 5 or 6 hours and the iron content determined spectrophotometrically, using bathophen-anthroline sulfonate for color development as published by Pippard et al, (M. J. Pippard, D. K. Johnson and C. A. Finch. Blood. 58:685-92 (1981)). […]

[13] = Total daily iron excretion in iron overloaded patients (enteric granules or glycine-buffered capsules); conditions: patients with iron overload
Description: Five human subjects were administered PIHDH (PIH(HCI)2) as either enteric coated granules at 546 mg three times daily representing the lowest dose tested at 20 mg/kg per day.

[14] = water, 25 °C (FIG. 16), read-out: water solubility

Cc1ncc(CO)c(C=NNC(=O)c2ccncc2)c1O [Pyridoxal isonicotinoyl hydrazone isethionate]
solubility ([1]; 0.1 n hcl, read-out: solubility in 0.1N HCl): 36 mg/mL
solubility ([1]; water, read-out: water solubility): 2.7 mg/mL

Cc1ncc(CO)c(C=NNC(=O)c2ccncc2)c1O [product]
solubility in acetonitrile, in words ([2]; acetonitrile): virtually nil
solubility of product in acetonitrile ([2]; acetonitrile): less than 0.1 mg/mL
amount of material dissolved per 500 cc hot acetonitrile ([2]; per 500 cc hot acetonitrile): 40 ma

Cc1ncc(CO)c(/C=N/NC(=O)c2ccncc2)c1O [PIH, 3-hydroxy-5-hydroxy-methyl-2-methyl-4-pyridinylcarboxaldehyde 4' pyridinecarboxylic acid hydrazone]
water solubility ([1]; water, 25 °C (FIG. 16)): 0.14 mg/mL (≈ 489 µM)
solubility [1, 14]: 0.14 mg/mL (≈ 489 µM)
volume of absolute ethanol required to dissolve 28.6 g PIH ([2]; absolute ethanol): 30,000 cc and 30.000 cc
solubility in ethanol ([2]; ethanol): approximately 1 mg/mL
taste [3]: unpleasant taste
water solubility, in words (literature) [4]: very low water solubility
instability under acidic conditions [5]: dissolution below pH 3 can lead to decomposition
iron excretion compared to desferrioxamine [6]: quantitatively similar iron excretion
iron excretion compared with subcutaneously injected desferrioxamine ([7]; oral PIH at three times the molar rates, preliminary human studies): less than half of that expected with subcutaneously injected desferrioxamine
toxicity at doses needed for sufficient iron excretion ([7]; oral capsule, >60 mg/kg, people): toxicity characterized by elevated hepatic enzymes
oral dose needed to elicit sufficient iron excretion ([7]; oral capsule, people): > 60 mg/kg
oral efficacy / iron removal in humans ([7]; oral, humans): poor oral efficacy; also recorded: inadequate levels of iron are removed in humans
palatability ([7]; oral, phase I clinical trials): highly unpalatable with a lingering unpleasant taste and oral sensation
absorption after oral administration [8]: not fully absorbed in vivo after oral administration
PIH crystals in feces ([8]; treated animals/subjects, oral): presence of PIH crystals in the feces of treated animals; also recorded: crystals actually visible in feces of treated subjects

Cc1ncc(CO)c(C=NNC(=O)c2ccncc2)c1O [PIHDH, 3-hydroxy-5-(hydroxy-methyl)-2-methyl-4-pyridinecarboxaldehyde-4' pyridinecarboxylic acid hydrazone dihydrochloride]
water solubility relative to PIH (times more water soluble) ([1]; PIHDH versus PIH base, dihydrochloride): 450 times and > 450 times
solubility [1, 14]: 63 mg/mL
water solubility, in words ([1]; water, dihydrochloride): better water solubility than the free base and its related hydrated species
degraded at 3 h ([9]; pH 1.29, 3 h): 44.1%
degraded at 3 h ([9]; pH 2.78, 3 h): 17.7%
decomposition when buffered ([9]; buffered above 3.0 to 7.0): virtually little to virtually no decomposition
degradation after three hours ([9]; pH 6.8, 3 h): no degradation
stability of crystals [10]: stable to light and anhydrous heat
ability to complex iron [11]: preserves its ability to complex iron in aqueous solutions in vitro and in vivo
total biliary iron excretion relative to PIH (percent) [12]: 250%
total biliary iron excretion relative to PIH (times greater) [12]: 2.5 times
absorption of enteric granules or buffered capsules [13]: adequately absorbed

Cc1ncc(CO)c(C=NNC(=O)c2ccncc2)c1O [hydrochloride-1.5 hydrate of PIH, 3-hydroxy-5-(hydroxymethyl) -2-methyl-4-pyridinecarboxaldehyde-4' pyridin ecar-boxylic acid hydrazone monohydrochloride trihemihydrate]
water solubility ([1]; water, 25 °C (FIG. 16)): 34 mg/mL
water solubility, in words ([1]; water, listed as monohydrochloride 1.5 hydrate): slower solubilization

— patent publication US5834492A, “Water soluble orally effective iron chelator” (Jacobus Pharmaceutical Co., priority 1997, dated 1998)
